System: cows
Experiment: Oral feeding of sorbitol (not ruminally protected) to cows versus control group (Example 7)
Assay type: in vivo, cow
Experimental: To determine the weight percent total solids, wet basis, in a sample, the actual weight of total solids is determined by analyzing the sample in accordance with Method #925.23 (33.2.09) of Official Methods of Analysis, Association of Official Analytical Chemists (AOAC) (16th Ed., 1995). The weight percent total solids, wet basis, is then calculated by dividing the actual weight of total solids by the actual weight of the sample. The weight percent of true protein, wet basis, for a particular sample is calculated after first determining the wet basis weight percent of total Kjeldahl nitrogen and the wet basis weight percent of non-protein nitrogen in the sample. The wet basis weight percent of total Kjeldahl nitrogen in the sample is determined using the method referenced above. The wet basis weight percent of non-protein nitrogen (NPN) in the sample is determined in accordance with Method #991.21 (33.2.12) of Official Methods of Analysis, Association of Official Analytical Chemists (AOAC) (16th Ed., 1995). The weight percent of true protein, wet basis, in the sample is then determined by subtracting the wet basis weight percent of non-protein nitrogen in the sample from the wet basis weight percent of total Kjeldahl nitrogen in the sample. To determine the weight percent lactose, wet basis, in a liquid sample, the weight of the liquid sample is first determined. The actual weight of lactose in the liquid sample may then be determined using analysis kit number 176-303, that is available from Boehringer-Mannheim of Indianapolis, Ind. in accordance with the procedural instructions included with analysis kit number 176-303. The weight percent lactose, wet basis, in the liquid sample is then calculated by dividing the actual weight of lactose in the liquid sample by the actual weight of the liquid sample. To determine the weight percent fat, wet basis, in a sample, the actual weight of fat in the sample is determined in accordance with Method #974.09 (33.7.18) of Official Methods of Analysis, Association of Official Analytical Chemists (AOAC) (16th Ed., 1995). The weight percent fat, wet basis, is then calculated by dividing the actual weight of fat in the sample by the actual weight of the sample. In this example, ten cows were orally fed 100 grams per cow per day of sorbitol along with their other daily rations during a test period of four weeks, while ten different cows of a control group were orally fed the same daily rations as the ten cows, with the exception that the ten cows of this control group were not given any sorbitol. The milk of the cows in the control group and the milk of the cows given sorbitol was sampled twice per week during the four week test period. Therefore, the values presented in Table 6 below for the various milk components for the control group and for the cows fed sorbitol represent averages of eight milk samples during the test period. The probability value, P, that is presented in Table 6 for each of the different milk components is a measure of statistical probability that the differing values between the control cattle and the cattle fed sorbitol, for each respective milk component, can be explained by the difference between the control group not being fed sorbitol and the test group that was fed sorbitol. A P value of 0.10 means that 10 times out of 100 the results can be explained by factors other than the feeding or withholding of sorbitol. […]

[1] = milk, oral 100 gr/day, four weeks, 10 cows, average of eight samples

`OC[C@@H](O)[C@@H](O)[C@H](O)[C@@H](O)CO` [sorbitol] was tested, and the Fat [1] was 4.02 Wt %, the Lactose [1] was 4.81 Wt. % and the “Total Solids” value [1] was 12.11 Wt. %. For the same molecule, the “True Protein” value [1] was 2.76 Wt. % and the “weight percent of milk components versus control group (conclusion in words)” value (oral feeding, not ruminally protected) was “no statistically significant increase”.

— patent publication US6866861B1, “Method and composition for enhancing milk component concentrations” (Land O'Lakes, Inc., priority 1999, dated 2005)
